Experiments:
Spinal cord (α2/3) = experiment: In vivo [3H]Ro 15-1788 binding, spinal cord; conditions: for percentage inhibition of in vivo [3H]Ro 15-1788 binding, spinal cord: 30 min, mean±SEM, relative to vehicle
Description: (§1) The in vivo binding of [^3H]Ro 15-1788 to mouse brain was performed essentially as described by Goeders and Kuhar (1985). Male Swiss-Webster mice received a 0.9% NaCl solution containing 50 mCi/kg of [^3H]Ro 15-1788 (0.05 ml/10 g of body weight) via the tail vein. […] Each mouse brain was then rapidly removed, homogenised in 5.0 ml of 50 mM Tris HCl, 5.0 mM EDTA, pH 7.4 at 4° C. using an ultra-turrax homogeniser for 10 s at setting 5. In a separate series of experiments different brain regions, selected for their preferential expression of particular GABA subtypes were also examined. Binding of [^3H]Ro 15-1788 to cerebellum is almost exclusively α1-like (Quirk et al, 1994), whereas binding to spinal cord is indicative of binding to receptors containing α2 or α3-subtypes, α1, α4 and α5 are rare or absent in this region (Wisden et al, 1992). Brains were rapidly dissected into forebrain and cerebellum and the spinal cord was also removed. Each forebrain was homogenised in 4.0 ml of buffer (approximately 14 ml/g wet weight of tissue), each cerebellum was homogenised in 1.0 ml of buffer (approximately 14 ml/g wet weight of tissue) and each spinal cord in 1.0 ml of buffer (approximately […] wet weight of tissue). Volumes ([…]) of homogenate were filtered rapidly through GF/B filters, washed with 2×5.0 ml volumes of ice-cold buffer and the residual radioactivity was counted by liquid scintillation spectroscopy.
(§2) Mice were injected intraperitoneally with FG 8094, 10 mg/kg or 1 mg/kg, 30 minutes prior to sacrifice and [^3H]Ro 15-1788 (0.1 mCi/g). Brain regions were dissected, homogenised and filtered as described in methods.

[1] = test system: benzodiazepine binding site of α2/3-containing GABA receptors; experiment: In vivo [3H]Ro 15-1788 binding, spinal cord; conditions: male, Swiss-Webster, mouse, in vivo, 1 mg/kg
Description: as §1, §2

[2] = test system: non-α5 subtype containing GABA-A receptors; experiment: In vivo [3H]Ro 15-1788 binding after pellet implantation; design: species or system rat; conditions: SC pellet
male Sprague Dawley rats = experiment: Pro-convulsant testing, acute treatment, PTZ infusion; format: in vivo, rat; conditions: 0.5-4.0 mg/kg IP 30 min prior to PTZ infusion
Description: Sixty naive male Sprague Dawley rats (225-265 g) housed in groups of four with food and water freely available, served as subjects. The rats were assigned to one of six groups and given: Vehicle or 0.5, 1.0, 2.0, 4.0 mg/kg of […] or 10.0 mg/kg of the non-selective receptor inverse agonist, CGS 8216, a known pro-convulsant agent. Vehicle, FG 8094 or CGS 8216 was administered IP 30 min prior to an infusion of the convulsant, pentylenetetrazole (PTZ, 40 mg/ml). PTZ was infused into the tail vein of the rat at the rate of 1.0 ml/min. The latency to clonic and tonic seizure were recorded and the threshold to each was calculated using the equation: Threshold dose=infusion rate (ml/s)×PTZ (mg/ml)×(1000/rats weight)×latency(s).

α5β3γ2 = target: T1, α5β3γ2 (Homo sapiens, UniProt P18507+P31644); experiment: Radioligand binding, membranes of stably transfected cells
T1 construct: expressed in transfected cells

Male PVG hooded rats = experiment: Morris watermaze cognitive studies; format: in vivo, rat
Description: FG 8094 was synthesised by the Merck, Sharp and Dohme Neuroscience Research Centre's medicinal chemistry group and was suspended in 0.5% CMC. Vehicle or FG 8094 was administered IP 30 mins before the beginning of the first training trial.
Male PVG hooded rats (Bantin & Kingman, Hull U.K.), weighting approximately 300 g, were housed in groups of four with free access to food and water. The animals were maintained on a 12/12 h light-dark cycle, with the lights on at 07:00 h.
The Morris watermaze consists of a white, fibre-glass circular pool, of diameter 2 m, filled with an opaque mixture of water and white dye (E308, Morton International) maintained at 26-28° C. […] A hidden platform (13×13 cm) submerged 2 cm below the water surface was placed in the middle of the NE quadrant.
A closed-circuit video camera, fitted with a wide-angle lens, was mounted directly above the centre of the pool and connected to an image analyser which digitised the image. The digital information was relay to an Archimedes microcomputer running ‘Watermaze’ a software package supplied by Paul Fray LTD (Cambridge, UK). The software package provided the following measures: latency to reach the platform, length of path taken, average swimming speed, the time spent and the total distance travelled in the target quadrant.
The rats were assigned to four treatment groups (n=8): Vehicle, 0. 1, 0.3, 1.0 mg/kg FG 8094. During the acquisition phase of the experiment all the groups were given four trials per day. During this time the hidden platform was submerged in the NE quadrant of the watermaze. The rat was taken from the home cage and placed into the watermaze at one of four quasi-randomly determined locations (‘North’, ‘East’, ‘South’, or ‘West’) with its head facing, and almost touching, the pool wall. Trials began when the rat was released by the experimenter and ended when the rat climbed onto the platform and the mean escape latency was recorded. The maximum trial length was 60 s. If by that time the rat had not climbed on to the platform the trial ended automatically, the experimenter placed the rat on the platform and an escape latency of 60 s was recorded. The rat remained on the platform for 30 s and was then removed to a high-sided opaque plastic container for a further 30 s, (inter-trial interval, ITI). At the end of the ITI the rat was placed into the pool again, but at a different location and upon release the next trial began. This procedure was repeated until four trials had been completed.
Normally, the escape latency declines over several days of training from 60 s to around 20 s. A ‘probe trial’ assess the rat's spatial memory for the location of the hidden platform. During this trial the platform was removed from the watermaze and the rat was allowed to search the pool for 60 s before it was removed from the pool. If the treatment improves the rat's memory for the location of the platform, it will spend longer searching the quadrant in which the platform had previously been hidden (NE) than a rat given vehicle treatment.
Deficits in performance that might be due to drug-induced side-effects (such as blurred vision or motoric deficits resulting in an impaired ability to swim) were assessed using cued recall. In this procedure, the platform was also placed in the NE quadrant, but was raised 3 cm above the water level and thus visible to the rat. If the treatment has no effects on the mean escape latencies to the visible platform, then any group differences in mean escape latencies to an invisible platform can be attributed to an effect on cognitive process.
Six days following the probe trial, during which time the rats were not expose to the watermaze or administered FG 8094, the rats were again tested with the platform submerged in the NE quadrant using the acquisition protocol.
Reversal training was identical to the acquisition phase of the experiment with the exception that the platform was submerged in the middle of the SW quadrant.

T1 sequence (P31644 32-462): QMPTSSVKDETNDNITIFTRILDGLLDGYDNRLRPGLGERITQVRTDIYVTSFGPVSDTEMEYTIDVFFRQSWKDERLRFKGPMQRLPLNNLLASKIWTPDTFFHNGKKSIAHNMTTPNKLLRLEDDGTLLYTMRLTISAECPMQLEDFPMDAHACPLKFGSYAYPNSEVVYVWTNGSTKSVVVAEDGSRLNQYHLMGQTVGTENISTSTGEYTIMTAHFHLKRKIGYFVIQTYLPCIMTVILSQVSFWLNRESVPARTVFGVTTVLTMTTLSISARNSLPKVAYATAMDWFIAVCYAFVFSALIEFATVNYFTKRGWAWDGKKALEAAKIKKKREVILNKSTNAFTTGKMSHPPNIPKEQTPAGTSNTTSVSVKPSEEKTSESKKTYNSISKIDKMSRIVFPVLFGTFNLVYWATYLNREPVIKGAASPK
T1 sequence (P28472 26-473 partner): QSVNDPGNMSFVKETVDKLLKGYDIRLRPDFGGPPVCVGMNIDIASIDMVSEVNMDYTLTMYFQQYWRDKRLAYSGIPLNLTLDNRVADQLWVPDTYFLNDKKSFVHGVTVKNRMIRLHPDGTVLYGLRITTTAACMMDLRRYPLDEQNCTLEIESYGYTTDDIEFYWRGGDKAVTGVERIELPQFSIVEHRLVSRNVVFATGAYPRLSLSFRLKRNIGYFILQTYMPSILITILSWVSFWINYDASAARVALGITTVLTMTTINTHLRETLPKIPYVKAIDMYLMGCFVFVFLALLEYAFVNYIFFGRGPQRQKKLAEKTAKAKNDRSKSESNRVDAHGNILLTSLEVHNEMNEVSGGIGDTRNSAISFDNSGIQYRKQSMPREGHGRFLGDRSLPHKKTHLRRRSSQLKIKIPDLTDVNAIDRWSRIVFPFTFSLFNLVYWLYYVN
T1 sequence (P18507 40-467 isoform P18507-1 limits assumed): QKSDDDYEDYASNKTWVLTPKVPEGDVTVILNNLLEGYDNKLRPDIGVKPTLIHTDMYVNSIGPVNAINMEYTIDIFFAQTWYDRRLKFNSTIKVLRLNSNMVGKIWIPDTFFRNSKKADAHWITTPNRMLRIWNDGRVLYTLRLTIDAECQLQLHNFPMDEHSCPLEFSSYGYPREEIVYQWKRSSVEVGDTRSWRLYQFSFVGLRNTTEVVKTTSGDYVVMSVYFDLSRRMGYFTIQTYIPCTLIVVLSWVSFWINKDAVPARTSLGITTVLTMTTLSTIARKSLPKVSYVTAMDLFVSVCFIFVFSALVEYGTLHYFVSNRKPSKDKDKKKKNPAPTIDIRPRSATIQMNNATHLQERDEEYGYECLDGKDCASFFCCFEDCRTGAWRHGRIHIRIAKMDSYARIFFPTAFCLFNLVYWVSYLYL

Q: How did the “occupancy of α2/3 receptors” value (Spinal cord (α2/3); 1.0 mg/kg) turn out when CCOC(=O)c1ncn2c1[C@@H]1CCCN1C(=O)c1cc(OC)ccc1-2 [FG 8094, 9H-imidazo[1,5-a]pyrrolo[2,1-C][1,4]benzodiazepine-1-carboxylic acid, 11, 12, 13, 13a-tetrahydro-7-methoxy-9-oxo-, ethyl ester, (S)-(9CI)] was run?
A: less than 35%

Q: What about the “percentage inhibition of in vivo [3H]Ro 15-1788 binding, spinal cord” value (Spinal cord (α2/3); 1 mg/kg ip) of the same molecule?
A: 33.8 ± 7.4

Q: And the “percentage inhibition of in vivo [3H]Ro 15-1788 binding, spinal cord” value (Spinal cord (α2/3); 10 mg/kg ip)?
A: 74.2 ± 3.8

Q: And the concentration at 30 min [1]?
A: 13.2 nM

Q: And the “occupancy of non-α5 subtype containing GABA-A receptors” value [2]?
A: did not significantly occupy

Q: What about the pro-convulsant effects (male Sprague Dawley rats) of the same molecule?
A: devoid of pro-convulsant effects

Q: And the Ki (α5β3γ2)?
A: 0.45 ± 0.15 nM

Q: And the “selectivity for α5-containing receptors over α1” value (α5β3γ2; over α1)?
A: 107 fold

Q: What about the “selectivity for α5-containing receptors over α2” value (α5β3γ2; over α2) of the same molecule?
A: 60 fold

Q: What about the “selectivity for α5-containing receptors over α3” value (α5β3γ2; over α3) of the same molecule?
A: 53 fold

Q: And the “selectivity for α5-containing receptors over α6” value (α5β3γ2; over α6)?
A: 184 fold

Q: And the “cued recall, mean escape latency to the visible platform” value (Male PVG hooded rats; 0.1, 0.3, 1.0 mg/kg IP)?
A: no significant effect of dose

Q: What about the “probe trial, time spent searching the platform quadrant” value (Male PVG hooded rats; 0.1, 0.3, 1.0 mg/kg IP) of the same molecule?
A: no difference in the amount of time the control and drug groups spent searching the quadrant

Q: What about the “cued recall, mean path length” value (Male PVG hooded rats; 0.1, 0.3, 1.0 mg/kg IP, post hoc Newman-Keuls) of the same molecule?
A: vehicle group traversed a significantly longer path than all the groups given FG 8094

Q: And the “mean escape latencies, acquisition trials” value (Male PVG hooded rats; 0.3 and 1.0 mg/kg IP, nine day training)?
A: appear to be shorter than the vehicle control group or the 0.1 mg/kg group, the observation was not confirmed by Newman Keul post hoc tests

Q: What about the “mean swimming speed during escape to the hidden platform” value (Male PVG hooded rats; acquisition trials, 0.1, 0.3, 1.0 mg/kg IP) of the same molecule?
A: no significant effect of dose

Q: And the “reversal learning, mean escape latency” value (Male PVG hooded rats; platform moved to Southwest quadrant, first reversal day, p<0.05)?
A: mean escape latency of the vehicle group was significantly longer than all of the FG 8094 groups

Q: What about the “recall test, mean escape latency” value (Male PVG hooded rats; six days after probe trial, 0.1, 0.3, 1.0 mg/kg, p<0.05) of the same molecule?
A: mean escape latency of the vehicle group was longer than any of the FG 8094 groups
